Reference: ChEMBL document CHEMBL5131469, “Design, synthesis and biological evaluation of novel procaine derivatives for intravenous anesthesia” (Bioorg Med Chem Lett, 2022)
pIC50: −log10 of the molar value. Active and inactive are the calls of the source. No cut-off for these calls is given here.

Key:
[1] = Lipophilicity, log D of the compound; format: physicochemical; settings: octanol/water
[2] = system: Mus musculus; experiment: Anesthetic activity in mouse assessed as loss of righting […] administered as single injection via caudal vein; format: functional; settings: route iv
[3] = Toxicity in mouse administered as single injection via caudal vein; settings: in vivo, route iv
[4] = Therapeutic index, ratio of LD50 for toxicity in mouse to ED50 for anesthetic activity in mouse; format: organism-based; settings: in vivo, read-out: Ratio LD50/ED50
[5] = Solubility of the compound at pH 2; format: physicochemical; settings: buffer
[6] = system: Mus musculus; experiment: Anesthetic activity in mouse assessed as reduction in recovery time of righting reflex at 1.5 times ED50, iv; format: functional, organism-based
[7] = Toxicity in mouse assessed as adverse effect at 1.5 times ED50, iv; settings: in vivo
[8] = system: Rattus norvegicus; experiment: Anesthetic activity in iv dosed rat assessed as loss of righting […] administered continuously; format: functional
[9] = Toxicity in iv dosed rat administered continuously; format: organism-based; settings: in vivo
[10] = Therapeutic index, ratio of LD50 for toxicity in iv dosed rat to ED50 for anesthetic activity in iv dosed rat; format: organism-based; settings: in vivo, read-out: Ratio LD50/ED50
[11] = Stability in human liver microsomes measured within 60 mins; format: ADME, Microsome; settings: 1 h
[12] = Stability in plasma (unknown origin); format: ADME, cell-free; settings: unidentified
[13] = Hepatotoxicity in iv dosed rat assessed as change in AST level administered continuously; format: toxicity, organism-based; settings: in vivo
[14] = Hepatotoxicity in iv dosed rat assessed as change in ALT level administered continuously; format: toxicity, organism-based; settings: in vivo
[15] = Nephrotoxicity in iv dosed rat assessed as change in creatinine level administered continuously; format: toxicity, organism-based; settings: in vivo
[16] = Nephrotoxicity in iv dosed rat assessed as change in urea level administered continuously; format: toxicity, organism-based; settings: in vivo
[17] = Cardiotoxicity in iv dosed rat assessed as change in CK-MB level administered continuously; format: toxicity, organism-based; settings: in vivo
[18] = Cardiotoxicity in iv dosed rat assessed as change in alpha-HBDH level administered continuously; format: toxicity, organism-based; settings: in vivo
[19] = Cardiotoxicity in iv dosed rat assessed as change in LDH level administered continuously; format: toxicity, organism-based; settings: in vivo
[20] = Hepatotoxicity in iv dosed rat assessed as morphological change in liver administered continuously; format: toxicity, organism-based; settings: in vivo
[21] = Nephrotoxicity in iv dosed rat assessed as morphological change in kidney administered continuously; format: toxicity, organism-based; settings: in vivo
[22] = Cardiotoxicity in iv dosed rat assessed as morphological change in heart administered continuously; format: toxicity, organism-based; settings: in vivo
[23] = Toxicity in iv dosed rat assessed as body weight loss administered continuously as infusion for 2 weeks; format: organism-based; settings: in vivo, 336 h
[24] = molecular target: Voltage-gated inwardly rectifying potassium channel KCNH2 (Homo sapiens, UniProt Q12809); experiment: Inhibition of human ERG
Voltage-gated inwardly rectifying potassium channel KCNH2, sequence (Q12809 whole entry): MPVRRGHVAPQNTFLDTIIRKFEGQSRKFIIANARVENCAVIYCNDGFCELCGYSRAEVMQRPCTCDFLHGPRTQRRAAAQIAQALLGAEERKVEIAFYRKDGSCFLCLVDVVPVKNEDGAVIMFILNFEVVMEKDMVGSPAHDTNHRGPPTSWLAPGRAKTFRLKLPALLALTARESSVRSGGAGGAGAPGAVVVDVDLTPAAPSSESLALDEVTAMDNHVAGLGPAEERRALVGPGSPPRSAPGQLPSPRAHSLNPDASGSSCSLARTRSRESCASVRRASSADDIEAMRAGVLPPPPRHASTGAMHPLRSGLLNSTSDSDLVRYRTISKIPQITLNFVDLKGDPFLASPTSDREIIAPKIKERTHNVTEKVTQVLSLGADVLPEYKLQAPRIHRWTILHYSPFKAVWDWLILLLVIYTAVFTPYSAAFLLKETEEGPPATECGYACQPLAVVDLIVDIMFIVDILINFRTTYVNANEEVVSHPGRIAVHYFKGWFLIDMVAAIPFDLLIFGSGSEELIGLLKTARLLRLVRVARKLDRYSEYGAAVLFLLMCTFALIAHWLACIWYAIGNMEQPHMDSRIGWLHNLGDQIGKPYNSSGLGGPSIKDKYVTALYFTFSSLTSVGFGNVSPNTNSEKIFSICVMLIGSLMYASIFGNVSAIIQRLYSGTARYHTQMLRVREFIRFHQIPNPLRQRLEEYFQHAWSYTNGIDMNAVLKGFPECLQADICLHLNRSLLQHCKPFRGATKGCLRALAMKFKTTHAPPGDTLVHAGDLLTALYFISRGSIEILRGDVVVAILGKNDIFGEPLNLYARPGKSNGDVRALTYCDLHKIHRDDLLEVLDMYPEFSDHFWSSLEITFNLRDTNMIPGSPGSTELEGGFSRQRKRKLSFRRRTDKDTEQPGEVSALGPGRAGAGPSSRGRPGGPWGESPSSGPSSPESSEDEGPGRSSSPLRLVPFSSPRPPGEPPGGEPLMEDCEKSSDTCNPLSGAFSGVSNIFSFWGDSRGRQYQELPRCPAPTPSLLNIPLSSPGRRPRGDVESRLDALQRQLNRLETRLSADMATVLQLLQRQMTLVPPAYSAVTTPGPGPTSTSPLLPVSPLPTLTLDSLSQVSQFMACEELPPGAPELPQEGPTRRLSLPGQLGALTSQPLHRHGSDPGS

[25] = system: HEK293; experiment: Reversible inhibition of human NR2B receptor expressed in HEK293 cells assessed as inhibition of L-glutamate-induced open-phase current at 500 uM in presence of glycine by whole-cell patch-clamp method relative to control; format: cell-based
[26] = Toxicity in mouse assessed as convulsion at 1.5 times ED50, iv; settings: in vivo
[27] = Toxicity in mouse assessed as severe respiratory suppression at 1.5 times ED50, iv; settings: in vivo
[28] = Toxicity in mouse assessed as angular tension at 1.5 times ED50, iv; settings: in vivo
[29] = Toxicity in mouse assessed as ankylosis at 1.5 times ED50, iv; settings: in vivo
[30] = Toxicity in iv dosed rat assessed as muscle fibrillation administered continuously; format: organism-based; settings: in vivo
[31] = Toxicity in iv dosed rat assessed as convulsion administered continuously; format: organism-based; settings: in vivo
[32] = Toxicity in iv dosed rat assessed as muscular rigidity administered continuously; format: organism-based; settings: in vivo
[33] = Toxicity in iv dosed rat assessed as cyanosis administered continuously; format: organism-based; settings: in vivo
[34] = Toxicity in iv dosed rat assessed as irregular respiratory rhythm administered continuously; format: organism-based; settings: in vivo
[35] = Toxicity in mouse assessed as muscular rigidity at 1.5 times ED50, iv; settings: in vivo

SMILES	logD [1]	ED50 [2] [mg/kg]	LD50 [3] [mg/kg]	selectivity ratio [4]	other results
CC1COCC(C)N1CCOC(=O)c1ccc(N)cc1 (stereo unspecified)	0.42	160	399	2.49	–
COCCN(CCOC)CCOC(=O)c1ccc(N)cc1	0.83	55.2	104	1.89	–
CCN(CCO)CCOC(=O)c1ccc(N)cc1	0.47	90.2	115	< 1.5	–
CCN(CCOC)CCOC(=O)c1ccc(N)cc1	0.96	39.6	60.3	1.52	–
CC(C)(C)N1CCN(CCOC(=O)c2ccc(N)cc2)CC1	1.15	42.2	78.4	1.86	–
Nc1ccc(C(=O)OCCN2CC[S+]([O-])CC2)cc1	1.55	42.7	110	2.57	solubility [5]: Insoluble
CC1CN(CCOC(=O)c2ccc(N)cc2)CC(C)O1 (stereo unspecified)	1.24	59.3	159	2.68	Activity [6]: Active; Activity [7]: Toxic; ED50 [8]: 66 mg/kg; LD50 [9]: 180 mg/kg; selectivity ratio [10]: 2.73; Stability [11]: Stable; Stability [12]: Unstable; Activity [13]: Non-Toxic; Activity [14]: Non-Toxic; Activity [15]: Non-Toxic; Activity [16]: Non-Toxic; Activity [17]: Non-Toxic; Activity [18]: Non-Toxic; Activity [19]: Non-Toxic; Activity [20]: Non-Toxic; Activity [21]: Non-Toxic; Activity [22]: Non-Toxic; Activity [23]: Non-Toxic; pIC50 [24]: < 4.52; inhibition [25]: > 80%
CC1CC(C)CN(CCOC(=O)c2ccc(N)cc2)C1 (stereo unspecified)	3.2	33.9	68.5	2.02	Activity [26]: Toxic; Activity [27]: Toxic; Activity [28]: Toxic; Activity [29]: Toxic
Nc1ccc(C(=O)OCCN2CCS(=O)(=O)CC2)cc1	1.63	45.5	115	2.53	solubility [5]: Insoluble
CN1CCN(CCOC(=O)c2ccc(N)cc2)CC1	0.43	84.2	100	< 1.5	–
Nc1ccc(C(=O)OCCN2CCOCC2)cc1	0.54	148	365	2.46	–
CCN(CC)CCOC(=O)c1ccc(N)cc1 [PROCAINE]	1.07	42.8	70.5	1.65	Activity [7]: Toxic; ED50 [8]: 50.4 mg/kg; LD50 [9]: 78.8 mg/kg; selectivity ratio [10]: 1.56; Activity [30]: Toxic; Activity [31]: Toxic; Activity [32]: Toxic; Activity [33]: Toxic; Activity [34]: Toxic; Activity [13]: Non-Toxic; Activity [14]: Non-Toxic; Activity [15]: Non-Toxic; Activity [16]: Non-Toxic; Activity [17]: Non-Toxic; Activity [18]: Non-Toxic; Activity [19]: Non-Toxic; Activity [20]: Non-Toxic; Activity [21]: Non-Toxic; Activity [22]: Non-Toxic; Activity [23]: Non-Toxic
CC1CN(CCOC(=O)c2ccc(N)cc2)CCO1 (stereo unspecified)	1	90.2	188	2.08	Activity [6]: Active; Activity [35]: Toxic
Nc1ccc(C(=O)OCCN(CCO)CCO)cc1	-0.19	128	160	< 1.5	–
CC(C)N1CCN(CCOC(=O)c2ccc(N)cc2)CC1	0.92	52.8	58.6	< 1.5	–
CC1COCCN1CCOC(=O)c1ccc(N)cc1 (stereo unspecified)	0.62	119	253	2.13	–
CCN1CCN(CCOC(=O)c2ccc(N)cc2)CC1	0.81	56	64.3	< 1.5	–
Nc1ccc(C(=O)OCCN2CCSCC2)cc1	1.58	54	126	2.33	solubility [5]: Insoluble
